The source made the active and inactive calls. The rule behind the calls is not given here.
Experiments:
[1] = target: T1, Fatty-acid amide hydrolase 1 (Homo sapiens, UniProt O00519); experiment: Inhibition of human recombinant FAAH overexpressed in African green monkey COS7 cells using [3H]-anandamide as substrate preincubated for 10 mins before substrate addition measured after 10 mins by liquid scintillation counting analysis; type: cell-based, COS-7
T1 sequence (O00519 whole entry): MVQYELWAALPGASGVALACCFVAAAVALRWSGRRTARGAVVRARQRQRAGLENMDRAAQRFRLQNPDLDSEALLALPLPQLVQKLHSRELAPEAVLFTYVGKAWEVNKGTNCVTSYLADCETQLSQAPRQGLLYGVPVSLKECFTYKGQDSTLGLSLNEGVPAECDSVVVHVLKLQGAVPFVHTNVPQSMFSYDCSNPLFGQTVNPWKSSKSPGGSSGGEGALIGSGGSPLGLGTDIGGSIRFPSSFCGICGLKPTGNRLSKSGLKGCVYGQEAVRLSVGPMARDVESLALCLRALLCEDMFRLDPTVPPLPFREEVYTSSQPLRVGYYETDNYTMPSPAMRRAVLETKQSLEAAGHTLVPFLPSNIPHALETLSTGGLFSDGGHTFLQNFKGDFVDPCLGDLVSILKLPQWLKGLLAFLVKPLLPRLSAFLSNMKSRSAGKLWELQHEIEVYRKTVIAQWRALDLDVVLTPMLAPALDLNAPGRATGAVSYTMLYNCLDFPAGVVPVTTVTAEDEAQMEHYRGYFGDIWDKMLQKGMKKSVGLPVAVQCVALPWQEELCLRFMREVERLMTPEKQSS

[2] = target: T2, Fatty-acid amide hydrolase 1 (Homo sapiens) (UniProt O00519); experiment: Reversible inhibition of human recombinant FAAH overexpressed in African green monkey COS7 cells using […] as substrate assessed as recovery of enzyme activity at 20 x IC50 preincubated for 60 mins followed by 500 fold dilution measured after 10 mins by HPLC analysis; type: cell-based; conditions: COS-7
T2 sequence (whole entry): T1 sequence (O00519 whole entry)

[3] = target: T2, Fatty-acid amide hydrolase 1 (Homo sapiens); experiment: Inhibition of human recombinant FAAH overexpressed in African green monkey COS7 cells using [3H]-anandamide as substrate at 300 uM preincubated for 10 to 60 mins by liquid scintillation counting analysis; type: cell-based; conditions: COS-7
[4] = target: T3, Fatty-acid amide hydrolase 1 (Rattus norvegicus) (UniProt P97612); experiment: Inhibition of FAAH in rat RBL2H3 cells assessed as blockade of [3H]-anandamide uptake at 0.1 uM incubated for 15 mins prior to [3H]-anandamide addition measured after 10 mins by scintillation spectroscopic analysis; type: cell-based; conditions: RBL-2H3
T3 sequence (whole entry): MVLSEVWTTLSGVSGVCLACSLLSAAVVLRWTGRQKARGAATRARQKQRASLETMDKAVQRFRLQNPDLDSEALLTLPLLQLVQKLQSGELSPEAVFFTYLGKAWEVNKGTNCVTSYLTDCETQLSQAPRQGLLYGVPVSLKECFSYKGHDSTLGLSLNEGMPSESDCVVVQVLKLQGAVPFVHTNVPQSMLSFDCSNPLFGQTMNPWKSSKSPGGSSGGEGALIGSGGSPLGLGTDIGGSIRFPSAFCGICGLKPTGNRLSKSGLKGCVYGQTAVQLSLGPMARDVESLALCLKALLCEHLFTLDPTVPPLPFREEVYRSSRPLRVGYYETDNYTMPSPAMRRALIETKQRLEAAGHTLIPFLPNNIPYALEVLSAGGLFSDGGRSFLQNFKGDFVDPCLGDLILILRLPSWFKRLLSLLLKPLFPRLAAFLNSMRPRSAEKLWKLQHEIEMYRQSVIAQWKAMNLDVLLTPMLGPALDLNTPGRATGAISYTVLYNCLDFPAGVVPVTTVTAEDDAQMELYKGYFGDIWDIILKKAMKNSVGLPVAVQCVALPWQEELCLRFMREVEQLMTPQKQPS

[5] = target: T2, Fatty-acid amide hydrolase 1 (Homo sapiens); experiment: Inhibition of human recombinant FAAH overexpressed in African green monkey COS7 cells using [3H]-anandamide as substrate at 30 uM preincubated for 10 to 60 mins by liquid scintillation counting analysis; conditions: COS-7

IC50 ([1]; read-out: IC50) [nM] | IC50 ([1]; read-out: pIC50 (converted)) [nM] | inhibition [2] | inhibition [3] | inhibition [4] | inhibition [5] | SMILES
320 | 324 | inactive | Active | – | – | O=C(Nc1ccccc1)N1CCC(Cc2ccc3ccccc3n2)CC1
– | – | – | – | Active | – | O=C(N1CCC(C(c2ccc3c(c2)OCO3)c2ccc3c(c2)OCO3)CC1)n1cncn1
17 | 16.6 | Active | – | – | inactive | CCCCCCCCCCCC(=O)c1nc2ncccc2o1
